Measured values: ChEMBL document CHEMBL3885881, “DrugMatrix”

Organism: Rattus norvegicus
Type: toxicity, organism-based, Sprague-Dawley
Conditions: in vivo, sc, 24 h, route mini-PUMP - SUBCUTANEOUS, time 1 day, vehicle 100 % SALINE; for ABSOLUTE EOSINOPHIL / ABSOLUTE LYMPHOCYTE / ABSOLUTE MONOCYTE / ABSOLUTE SEGMENTED NEUTROPHIL / BASOPHIL / EOSINOPHIL / ERYTHROCYTE COUNT / HEMATOCRIT / HEMOGLOBIN / LEUKOCYTE COUNT / LYMPHOCYTE / MEAN CORPUSCULAR HEMOGLOBIN / MEAN CORPUSCULAR HEMOGLOBIN CONCENTRATION / MEAN CORPUSCULAR VOLUME / MONOCYTE / NEUTROPHIL / NUCLEATED RED BLOOD CELLS / PLATELET COUNT: tissue Blood; for ALANINE AMINOTRANSFERASE / ALBUMIN / ALKALINE PHOSPHATASE / ASPARTATE AMINOTRANSFERASE / BLOOD UREA NITROGEN / CARBON DIOXIDE / CHLORIDE / CHOLESTEROL / CREATININE / GLUCOSE / LACTATE DEHYDROGENASE / LIPASE / PHOSPHORUS / POTASSIUM / SODIUM / TOTAL BILIRUBIN / TOTAL PROTEIN / URIC ACID: tissue Plasma
[1] = 0 mg/kg, vehicle control, dose level Control

Description: DrugMatrix - Regimen: Single

## NC[C@H](O)c1ccc(O)c(O)c1 [NOREPINEPHRINE]
[1]
  ABSOLUTE EOSINOPHIL: 26.17 CELLS/uL
  ABSOLUTE LYMPHOCYTE: 10985.83 CELLS/uL
  ABSOLUTE MONOCYTE: 234.5 CELLS/uL
  ABSOLUTE SEGMENTED NEUTROPHIL: 1753.5 CELLS/uL
  BASOPHIL: 0%
  EOSINOPHIL: 0.17%
  ERYTHROCYTE COUNT: 5.64 x10E6/uL
  HEMATOCRIT: 34.52%
  HEMOGLOBIN: 12.68 G/DL
  LEUKOCYTE COUNT: 13 x10E3/uL
  LYMPHOCYTE: 84.5%
  MEAN CORPUSCULAR HEMOGLOBIN: 22.5 pg
  MEAN CORPUSCULAR HEMOGLOBIN CONCENTRATION: 36.78 G/DL
  MEAN CORPUSCULAR VOLUME: 61.18 fL
  MONOCYTE: 1.83%
  NEUTROPHIL: 13.5%
  NUCLEATED RED BLOOD CELLS: 0.17 /100WBC
  PLATELET COUNT: 679.17 x10E3/uL
  ALANINE AMINOTRANSFERASE: 42.67 u/L
  ALBUMIN: 3.77 G/DL
  ALKALINE PHOSPHATASE: 291.17 u/L
  ASPARTATE AMINOTRANSFERASE: 74.5 u/L
  BLOOD UREA NITROGEN: 15.33 mg/dL
  CARBON DIOXIDE: 30 mmol/L
  CHLORIDE: 100.83 MEQ/L
  CHOLESTEROL: 65.33 mg/dL
  CREATININE: 0.15 mg/dL
  GLUCOSE: 179.83 mg/dL
  LACTATE DEHYDROGENASE: 162.67 u/L
  LIPASE: 8.5 u/L
  PHOSPHORUS: 12.2 mg/dL
  POTASSIUM: 5.73 MEQ/L
  SODIUM: 144.7 MEQ/L
  TOTAL BILIRUBIN: 0.15 mg/dL
  TOTAL PROTEIN: 5.87 G/DL
  URIC ACID: 1.93 mg/dL
1.75 mg/kg, dose level High
  ABSOLUTE EOSINOPHIL: 128.33 CELLS/uL
  ABSOLUTE LYMPHOCYTE: 11603.67 CELLS/uL
  ABSOLUTE MONOCYTE: 444.67 CELLS/uL
  ABSOLUTE SEGMENTED NEUTROPHIL: 3490 CELLS/uL
  BASOPHIL: 0%
  EOSINOPHIL: 1%
  ERYTHROCYTE COUNT: 6.6 x10E6/uL
  HEMATOCRIT: 39.53%
  HEMOGLOBIN: 14.47 G/DL
  LEUKOCYTE COUNT: 15.67 x10E3/uL
  LYMPHOCYTE: 74%
  MEAN CORPUSCULAR HEMOGLOBIN: 21.97 pg
  MEAN CORPUSCULAR HEMOGLOBIN CONCENTRATION: 36.6 G/DL
  MEAN CORPUSCULAR VOLUME: 60.07 fL
  MONOCYTE: 3%
  NEUTROPHIL: 22%
  NUCLEATED RED BLOOD CELLS: 0 /100WBC
  PLATELET COUNT: 1126 x10E3/uL
  ALANINE AMINOTRANSFERASE: 33 u/L
  ALBUMIN: 4.03 G/DL
  ALKALINE PHOSPHATASE: 413.33 u/L
  ASPARTATE AMINOTRANSFERASE: 77.33 u/L
  BLOOD UREA NITROGEN: 10.33 mg/dL
  CARBON DIOXIDE: 27.67 mmol/L
  CHLORIDE: 101 MEQ/L
  CHOLESTEROL: 102 mg/dL
  CREATININE: 0.12 mg/dL
  GLUCOSE: 268 mg/dL
  LACTATE DEHYDROGENASE: 247.67 u/L
  LIPASE: 9 u/L
  PHOSPHORUS: 14.8 mg/dL
  POTASSIUM: 6.26 MEQ/L
  SODIUM: 146.7 MEQ/L
  TOTAL BILIRUBIN: 0.13 mg/dL
  TOTAL PROTEIN: 6.4 G/DL
  URIC ACID: 3.1 mg/dL
